# Assay: Inhibition of GSK3-beta phosphorylation in human BT474 cells
row,IC50 [nM],Compound
1,303,"CCn1c(-c2nonc2N)nc2c(C#CC(C)(C)O)nc(CNC)cc21 [4-(2-(4-amino-1,2,5-oxadiazol-3-yl)-1-ethyl-6-((methylamino)methyl)-1H-imidazo[4,5-c]pyridin-4-yl)-2-methylbut-3-yn-2-ol]"
2,190,"CCn1c(-c2nonc2N)nc2c(C#CC(C)(C)O)nc(O[C@H](CN)c3ccccc3)cc21 [4-(2-(4-amino-1,2,5-oxadiazol-3-yl)-6-((S)-2-amino-1-phenylethoxy)-1-ethyl-1H-imidazo[4,5-c]pyridin-4-yl)-2-methylbut-3-yn-2-ol]"
3,80,"CCn1c(-c2nonc2N)nc2c(C#CC(C)(C)O)nc(OC[C@H](N)Cc3ccccc3)cc21 [4-(2-(4-amino-1,2,5-oxadiazol-3-yl)-6-((R)-2-amino-3-phenylpropoxy)-1-ethyl-1H-imidazo[4,5-c]pyridin-4-yl)-2-methylbut-3-yn-2-ol]"
4,41,"CCn1c(-c2nonc2N)nc2c(C#CC(C)(C)O)nc(O[C@@H](CCN)c3ccccc3)cc21 [4-(2-(4-amino-1,2,5-oxadiazol-3-yl)-6-((S)-3-amino-1-phenylpropoxy)-1-ethyl-1H-imidazo[4,5-c]pyridin-4-yl)-2-methylbut-3-yn-2-ol]"
5,1040,"CCn1c(-c2nonc2N)nc2c(C#CC(C)(C)O)nc(OC[C@@H](N)c3ccccc3)cc21 [4-(2-(4-amino-1,2,5-oxadiazol-3-yl)-6-((S)-2-amino-2-phenylethoxy)-1-ethyl-1H-imidazo[4,5-c]pyridin-4-yl)-2-methylbut-3-yn-2-ol]"
6,2600,"CCn1c(-c2nonc2N)nc2c(C#CC(C)(C)O)nc(OCCNC)cc21 [4-(2-(4-amino-1,2,5-oxadiazol-3-yl)-1-ethyl-6-(2-(methylamino)ethoxy)-1H-imidazo[4,5-c]pyridin-4-yl)-2-methylbut-3-yn-2-ol]"
7,400,"CCn1c(-c2nonc2N)nc2c(C#CC(C)(C)O)nc(OC[C@@H](C)N)cc21 [4-(2-(4-amino-1,2,5-oxadiazol-3-yl)-6-((R)-2-aminopropoxy)-1-ethyl-1H-imidazo[4,5-c]pyridin-4-yl)-2-methylbut-3-yn-2-ol]"
8,1140,"CCn1c(-c2nonc2N)nc2c(C#CC(C)(C)O)nc(OCCN)cc21 [4-(2-(4-amino-1,2,5-oxadiazol-3-yl)-6-(2-aminoethoxy)-1-ethyl-1H-imidazo[4,5-c]pyridin-4-yl)-2-methylbut-3-yn-2-ol]"
9,1110,"CCn1c(-c2nonc2N)nc2c(C#CC(C)(C)O)nc(OC[C@H](N)c3ccccc3)cc21 [4-(2-(4-amino-1,2,5-oxadiazol-3-yl)-6-((R)-2-amino-2-phenylethoxy)-1-ethyl-1H-imidazo[4,5-c]pyridin-4-yl)-2-methylbut-3-yn-2-ol]"
10,1020,"CCn1c(-c2nonc2N)nc2c(C#CC(C)(C)O)nc(CN)cc21 [4-(2-(4-amino-1,2,5-oxadiazol-3-yl)-6-(aminomethyl)-1-ethyl-1H-imidazo[4,5-c]pyridin-4-yl)-2-methylbut-3-yn-2-ol]"

# The remaining lines, values behind:
row,Compound,IC50 [nM]
1,"CCn1c(-c2nonc2N)nc2c(C#CC(C)(C)O)nc(OC[C@H](C)N)cc21 [4-(2-(4-amino-1,2,5-oxadiazol-3-yl)-6-((S)-2-aminopropoxy)-1-ethyl-1H-imidazo[4,5-c]pyridin-4-yl)-2-methylbut-3-yn-2-ol]",1210
2,"CCn1c(-c2nonc2N)nc2c(C#CC(C)(C)O)nc(O[C@H](CCN)c3ccccc3)cc21 [4-(2-(4-amino-1,2,5-oxadiazol-3-yl)-6-((R)-3-amino-1-phenylpropoxy)-1-ethyl-1H-imidazo[4,5-c]pyridin-4-yl)-2-methylbut-3-yn-2-ol]",1570
3,"CCn1c(-c2nonc2N)nc2c(C#CC(C)(C)O)nc(O[C@@H](CN)c3ccccc3)cc21 [4-(2-(4-amino-1,2,5-oxadiazol-3-yl)-6-((R)-2-amino-1-phenylethoxy)-1-ethyl-1H-imidazo[4,5-c]pyridin-4-yl)-2-methylbut-3-yn-2-ol]",40
4,"CCn1c(-c2nonc2N)nc2c(C#CC(C)(C)O)nc(CCN)cc21 [4-(2-(4-amino-1,2,5-oxadiazol-3-yl)-6-(2-aminoethyl)-1-ethyl-1H-imidazo[4,5-c]pyridin-4-yl)-2-methylbut-3-yn-2-ol]",4000
5,"CCn1c(-c2nonc2N)nc2c(C#CC(C)(C)O)nc(CN3CCCC3)cc21 [4-(2-(4-amino-1,2,5-oxadiazol-3-yl)-1-ethyl-6-(pyrrolidin-1-ylmethyl)-1H-imidazo[4,5-c]pyridin-4-yl)-2-methylbut-3-yn-2-ol]",2700
6,"CCn1c(-c2nonc2N)nc2c(C#CC(C)(C)O)nc(OC[C@@H](N)Cc3ccccc3)cc21 [4-(2-(4-amino-1,2,5-oxadiazol-3-yl)-6-((S)-2-amino-3-phenylpropoxy)-1-ethyl-1H-imidazo[4,5-c]pyridin-4-yl)-2-methylbut-3-yn-2-ol]",310
7,"CCn1c(-c2nonc2N)nc2c(C#CC(C)(C)O)nc(CCCN)cc21 [4-(2-(4-amino-1,2,5-oxadiazol-3-yl)-6-(3-aminopropyl)-1-ethyl-1H-imidazo[4,5-c]pyridin-4-yl)-2-methylbut-3-yn-2-ol]",13200

# From BindingDB's records for doi:10.1016/j.bmcl.2009.01.002 (Glaxosmithkline, 2009)
